Test results from patent publication US6737383B1, “Herbicidal oxadiazolidines” (priority 1999, dated 2004).

What was measured:
morningglory = experiment: Test B pre/postemergence morningglory; format: in vivo, Ipomoea hederacea
Outline: (§1)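 Herbicidal effect was estimated by eye on a ten-point control scale after plants spent twelve to sixteen days in a greenhouse following soil or foliar treatment. Foliar sprays targeted plants at one to four leaves; all doses were formulated in a non-phytotoxic solvent with surfactant.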

bedstraw = experiment: Test B pre/postemergence bedstraw; format: in vivo, Galium aparine
Outline: as §1

pigweed = experiment: Test B pre/postemergence pigweed; format: in vivo, Amaranthus retroflexus
Outline: as §1

cocklebur = experiment: Test B pre/postemergence cocklebur; format: in vivo, Xanthium strumarium
Outline: as §1

duck salad = experiment: Test B flood test duck salad; format: in vivo, Heteranthera limosa
Outline: (§2)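 Each value is a visual injury score relative to controls, with 10 meaning complete control and 0 no effect. Evaluation took place twelve to sixteen days after the 2-leaf-stage plants were treated and kept in the greenhouse.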

blackgrass = experiment: Test B pre/postemergence blackgrass; format: in vivo, Alopecurus myosuroides
Outline: as §1

velvetleaf = experiment: Test B pre/postemergence velvetleaf; format: in vivo, Abutilon theophrasti
Outline: as §1

surinam grass = experiment: Test B pre/postemergence surinam grass; format: in vivo, Brachiaria decumbens
Outline: as §1

wild oat = experiment: Test B pre/postemergence wild oat; format: in vivo, Avena fatua
Outline: as §1

smallflower flatsedge = experiment: Test B flood test smallflower flatsedge; format: in vivo, Cyperus difformis
Outline: as §2

soybean = experiment: Test B pre/postemergence soybean; format: in vivo, Glycine max
Outline: as §1

giant foxtail = experiment: Test B pre/postemergence giant foxtail; format: in vivo, Setaria faberii
Outline: as §1

corn = experiment: Test B pre/postemergence corn; format: in vivo, Zea mays
Outline: as §1

rice = experiment: Test B flood test rice; format: in vivo, Oryza sativa
Outline: as §2

wheat = experiment: Test B pre/postemergence wheat; format: in vivo, Triticum aestivum
Outline: as §1

sugar beet = experiment: Test B pre/postemergence sugar beet; format: in vivo, Beta vulgaris
Outline: as §1

rape = experiment: Test B pre/postemergence rape; format: in vivo, Brassica napus
Outline: as §1

purple nutsedge = experiment: Test B pre/postemergence purple nutsedge; format: in vivo, Cyperus rotundus; settings: Postemergence
Outline: as §1

bamyardgrass = experiment: Test B flood test barnyardgrass; format: in vivo, Echinochloa crus-galli
Outline: as §2

crabgrass = experiment: Test B pre/postemergence crabgrass; format: in vivo, Digitaria sanguinalis
Outline: as §1

[1] = Preemergence, Rate 62 g/ha, scale of 0 to 10 where 0 is no effect and 10 is complete control
[2] = Preemergence, Rate 250 g/ha, scale of 0 to 10 where 0 is no effect and 10 is complete control
[3] = Preemergence, Rate 500 g/ha, scale of 0 to 10 where 0 is no effect and 10 is complete control
[4] = Rate 125 g/ha, Preemergence, scale of 0 to 10 where 0 is no effect and 10 is complete control
[5] = Rate 500 g/ha, Postemergence, scale 0 to 10, 0 no effect, 10 complete control
[6] = Rate 62 g/ha, Postemergence, scale of 0 to 10 where 0 is no effect and 10 is complete control
[7] = Rate 125 g/ha, Postemergence, scale 0 to 10
[8] = Rate 62 g/ha, headed Pre-emergence (flood test species), scale 0 to 10 (0 no effect, 10 complete control)
[9] = Rate 125 g/ha, Pre-emergence, flood test species, scale 0 to 10 where 0 is no effect and 10 is complete control
[10] = Rate 250 g/ha, Pre-emergence, flood-test species, scale 0 to 10, 0 is no effect, 10 is complete control
[11] = Rate 500 g/ha, Pre-emergence, flood test species, scale 0 to 10 (0 no effect, 10 complete control)

CC(C)N(C(=O)n1oc(=O)n(CC2CC2)c1=O)c1ccc(F)cc1 [Compound 251]
5: Redroot pigweed plant response rating (pigweed; [4]) | Velvetleaf plant response rating (velvetleaf; [2]) | Plant response rating, Corn (corn; [3])
6: Bedstraw plant response rating (bedstraw; [7]) | Blackgrass plant response rating (blackgrass; [1]) | Wild oats plant response rating (wild oat; [4]) | Soybean plant response rating (soybean; [5]) | Sugarbeets plant response rating (sugar beet; [1]) | Plant response rating (0 to 10; 0 is no effect, 10 is complete control), Crabgrass (crabgrass; Rate 250 g/ha, Postemergence)
2: Bedstraw plant response rating (bedstraw; [6]) | Plant response rating (0 to 10; 0 is no effect, 10 is complete control), Redroot pigweed (pigweed; Rate 250 g/ha, Postemergence) | B. signalgrass plant response rating (surinam grass; [1]) | B. signalgrass plant response rating (surinam grass; [5]) | Wheat plant response rating (wheat; [5]) | Sugarbeets plant response rating (sugar beet; [5])
3: Cocklebur plant response rating (cocklebur; [5]) | B. signalgrass plant response rating (surinam grass; [4]) | Crabgrass plant response rating (crabgrass; [1])
0: Morningglory plant response rating (morningglory; [1]) | Morningglory plant response rating (morningglory; [2]) | Morningglory plant response rating (morningglory; [4]) | Bedstraw plant response rating (bedstraw; [1]) | Bedstraw plant response rating (bedstraw; [4]) | Redroot pigweed plant response rating (pigweed; [1]) | Cocklebur plant response rating (cocklebur; [1]) | Cocklebur plant response rating (cocklebur; [2]) | Plant response rating, Cocklebur (cocklebur; [3]) | Cocklebur plant response rating (cocklebur; [6]) | Cocklebur plant response rating (cocklebur; [7]) | Cocklebur plant response rating (cocklebur; [4]) | Plant response rating (0 to 10; 0 is no effect, 10 is complete control), Cocklebur (cocklebur; Rate 250 g/ha, Postemergence) | Ducksalad plant response rating (duck salad; [8]) | Ducksalad plant response rating (duck salad; [9]) | Ducksalad plant response rating (duck salad; [10]) | Ducksalad plant response rating (duck salad; [11]) | Blackgrass plant response rating (blackgrass; [6]) | Velvetleaf plant response rating (velvetleaf; [1]) | Velvetleaf plant response rating (velvetleaf; [5]) | B. signalgrass plant response rating (surinam grass; [6]) | B. signalgrass plant response rating (surinam grass; Rate 125 g/ha, Postemergence, scale 0 (no effect) to 10 (complete control)) | Plant response rating (0 to 10; 0 is no effect, 10 is complete control), B. signalgrass (surinam grass; Rate 250 g/ha, Postemergence) | Wild oats plant response rating (wild oat; [1]) | Wild oats plant response rating (wild oat; [5]) | S. Flatsedge plant response rating (smallflower flatsedge; [8]) | S. Flatsedge plant response rating (smallflower flatsedge; [9]) | S. Flatsedge plant response rating (smallflower flatsedge; [10]) | S. Flatsedge plant response rating (smallflower flatsedge; [11]) | Soybean plant response rating (soybean; [1]) | Soybean plant response rating (soybean; [2]) | Plant response rating, Soybean (soybean; [3]) | Soybean plant response rating (soybean; [4]) | Corn plant response rating (corn; [1]) | Corn plant response rating (corn; [2]) | Corn plant response rating (corn; [6]) | Corn plant response rating (corn; [7]) | Corn plant response rating (corn; [4]) | Plant response rating (0 to 10; 0 is no effect, 10 is complete control), Corn (corn; Rate 250 g/ha, Postemergence) | Corn plant response rating (corn; [5]) | Rice plant response rating (rice; [8]) | Rice plant response rating (rice; [9]) | Rice plant response rating (rice; [10]) | Rice plant response rating (rice; [11]) | Wheat plant response rating (wheat; [1]) | Wheat plant response rating (wheat; [2]) | Wheat plant response rating (wheat; [4]) | Rape plant response rating (rape; [1]) | Plant response rating (0 to 10; 0 is no effect, 10 is complete control), Rape (rape; Rate 250 g/ha, Postemergence) | Rape plant response rating (rape; [5]) | Plant response rating (0 to 10; 0 is no effect, 10 is complete control), Nutsedge (purple nutsedge; Rate 250 g/ha) | Nutsedge plant response rating (purple nutsedge; Rate 500 g/ha, scale 0 to 10, 0 no effect, 10 complete control) | Barnyardgrass plant response rating (bamyardgrass; [8]) | Barnyardgrass plant response rating (bamyardgrass; [9]) | Barnyardgrass plant response rating (bamyardgrass; [10]) | Barnyardgrass plant response rating (bamyardgrass; [11])
10: Bedstraw plant response rating (bedstraw; [2]) | Plant response rating, Bedstraw (bedstraw; [3]) | Redroot pigweed plant response rating (pigweed; [2]) | Plant response rating, Redroot pigweed (pigweed; [3]) | Plant response rating, Blackgrass (blackgrass; [3]) | Giant foxtail plant response rating (giant foxtail; [2]) | Plant response rating, Giant foxtail (giant foxtail; [3]) | Giant foxtail plant response rating (giant foxtail; [4]) | Sugarbeets plant response rating (sugar beet; [2]) | Plant response rating, Sugarbeets (sugar beet; [3]) | Sugarbeets plant response rating (sugar beet; [4]) | Plant response rating, Rape (rape; [3]) | Plant response rating, Crabgrass (crabgrass; [3])
8: Blackgrass plant response rating (blackgrass; [4]) | Plant response rating (0 to 10; 0 is no effect, 10 is complete control), Blackgrass (blackgrass; Rate 250 g/ha, Postemergence) | Blackgrass plant response rating (blackgrass; [5]) | Wild oats plant response rating (wild oat; [2]) | Giant foxtail plant response rating (giant foxtail; [1]) | Giant foxtail plant response rating (giant foxtail; [5]) | Plant response rating, Wheat (wheat; [3])
7: Plant response rating (0 to 10; 0 is no effect, 10 is complete control), Morningglory (morningglory; Rate 250 g/ha, Postemergence) | Plant response rating (0 to 10; 0 is no effect, 10 is complete control), Bedstraw (bedstraw; Rate 250 g/ha, Postemergence) | Plant response rating, Velvetleaf (velvetleaf; [3]) | B. signalgrass plant response rating (surinam grass; [2]) | Plant response rating (0 to 10; 0 is no effect, 10 is complete control), Giant foxtail (giant foxtail; Rate 250 g/ha, Postemergence) | Crabgrass plant response rating (crabgrass; [4])
9: Morningglory plant response rating (morningglory; [5]) | Bedstraw plant response rating (bedstraw; [5]) | Blackgrass plant response rating (blackgrass; [2]) | Plant response rating, B. signalgrass (surinam grass; [3]) | Plant response rating, Wild oats (wild oat; [3]) | Rape plant response rating (rape; [2]) | Rape plant response rating (rape; [4]) | Crabgrass plant response rating (crabgrass; [2]) | Crabgrass plant response rating (crabgrass; [5])
4: Plant response rating, Morningglory (morningglory; [3]) | Redroot pigweed plant response rating (pigweed; [5]) | Blackgrass plant response rating (blackgrass; [7]) | Velvetleaf plant response rating (velvetleaf; [4])
